Assay results reported in patent US10633389B2, “CARM1 inhibitors and uses thereof” (Epizyme, Inc., priority 2013, dated 2020).

Tested on: asymmetric di-methyl PABP1 in RKO cells
Assay: RKO methylation assay, In Cell Western (ICW) for asymmetric di-methyl PABP1
Format: cell-based
Conditions: Cellular potencies, ICW PABP1me2a
Summary of the method: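 In-cell Western on fixed RKO cells after 48 h compound exposure: anti-asymmetric di-methyl PABP1 signal at 800 nm over DRAQ5 DNA signal at 700 nm. Percent inhibition set between DMSO wells and wells with 20 μM reference compound; IC50 curves fitted in triplicate.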

IC50 | SMILES
< 5 µM | CNC[C@@H](O)COc1ccc(Cl)c(-c2nc(-c3c(C)noc3C)c(C)c(N3Cc4c(C)nn(C)c4C3)n2)c1 [Example 237-3]

Same assay, conditions: Homo sapiens, RKO, Cellular potencies, ICW PABP1me2a

IC50 | SMILES
< 5 µM | CNC[C@@H](O)COc1ccc(Cl)c(-c2nc(-c3c(C)noc3C)c(C)c(N3Cc4cn[nH]c4C3)n2)c1 [Example 231-3]
< 5 µM | CNCC(O)COc1cccc(-c2nc(N[C@H]3C[C@@H](C(C)(C)O)C3)c(C)c(-c3c(C)noc3C)n2)c1 (some centres unmarked) [Example 232-1a]
< 5 µM | CNC[C@@H](O)COc1ccc(Cl)c(-c2nc(-c3c(C)noc3C)c(C)c(N3Cc4cc(OC)cnc4C3)n2)c1 [Example 232-3]
10 to 20 µM | CNCC(O)COc1cccc(-c2nc(Nc3cc(C)on3)c(C)c(-c3c(C)noc3C)n2)c1 (centres unmarked) [Example 233-1a]
< 5 µM | CNC[C@@H](O)COc1ccc(Cl)c(-c2nc(NC[C@H]3CCOC3)c(C)c(-c3c(C)noc3C)n2)c1 [Example 233-3]
< 5 µM | CNCC(O)COc1cccc(-c2nc(N[C@H]3CC[C@H](OC)C3)c(C)c(-c3c(C)noc3C)n2)c1 (some centres unmarked) [Example 234-1a]
< 5 µM | CNC[C@@H](O)COc1ccc(Cl)c(-c2nc(-c3c(C)noc3C)c(C)c(N3CCC4(CC4)C3)n2)c1 [Example 234-3]
< 5 µM | CNCC(O)COc1cccc(-c2nc(-c3c(C)noc3C)c(C)c(N3CCN(Cc4ccccc4)C(C(F)F)C3)n2)c1 (centres unmarked) [Example 235-1a]
< 5 µM | CNC[C@@H](O)COc1ccc(Cl)c(-c2nc(-c3c(C)noc3C)c(C)c(N3CC4CC4C3)n2)c1 (some centres unmarked) [Example 235-3]
< 5 µM | CNCC(O)COc1cccc(-c2nc(NC3CCOCC3)c(C)c(-c3c(C)noc3C3CC3)n2)c1 (centres unmarked) [Example 236-1a]
< 5 µM | CNC[C@@H](O)COc1ccc(Cl)c(-c2nc(-c3c(C)noc3C)c(C)c(N3Cc4c(C)nn(C)c4C3)n2)c1 [Example 236-3]
10 to 20 µM | CNCC(O)COc1cccc(-c2nc(NC3CN(CC(F)F)C3)c(C)c(-c3c(C)noc3C)n2)c1 (centres unmarked) [Example 237-1a]
10 to 20 µM | CCOC(=O)N1CC(Nc2nc(-c3cccc(OCC(O)CNC)c3)nc(-c3c(C)noc3C)c2C)C1 (centres unmarked) [Example 238-1a]
< 5 µM | CNC[C@@H](O)COc1ccc(Cl)c(-c2nc(-c3c(C)noc3C)c(C)c(N3CCC3)n2)c1 [Example 238-3]
< 5 µM | CNCC(O)COc1cccc(-c2nc(NC3CCOC(C)C3)c(C)c(-c3c(C)noc3C)n2)c1 (centres unmarked) [Example 239-1a]
< 5 µM | CNC[C@@H](O)COc1ccc(Cl)c(-c2nc(-c3cnn(C)c3)c(C)c(-c3c(C)noc3C)n2)c1 [Example 239-3]
< 5 µM | CNCC(O)COc1cccc(-c2nc(NC3CCN(C4COC4)C3)c(C)c(-c3c(C)noc3C)n2)c1 (centres unmarked) [Example 240-1a]
< 5 µM | CCO[C@@H]1CCC[C@H]1Nc1nc(-c2cc(OC[C@H](O)CNC)ccc2Cl)nc(-c2c(C)noc2C)c1C [Example 240-3]
< 5 µM | CNCC(O)COc1cccc(-c2nc(NC3CCCC3)c(C)c(-c3c(C)noc3C)n2)c1 (centres unmarked) [Example 241-1a]
< 5 µM | CCO[C@@H]1CCC[C@H]1N(CC)c1nc(-c2cc(OC[C@H](O)CNC)ccc2Cl)nc(-c2c(C)noc2C)c1C [Example 241-3]
< 5 µM | CCO[C@H]1CCC[C@H]1Nc1nc(-c2cc(OC[C@H](O)CNC)ccc2Cl)nc(-c2c(C)noc2C)c1C [Example 242-3]

IC50 | SMILES
< 5 µM | CNCC(O)COc1cccc(-c2nc(NC3CCN(C(=O)C4CC4)C3)c(C)c(-c3c(C)noc3C)n2)c1 (centres unmarked) [Example 243-1a]
< 5 µM | CNC[C@@H](O)COc1ccc(Cl)c(-c2nc(-c3c(C)noc3C)c(Cl)c(N3Cc4nc(C)sc4C3)n2)c1 [Example 243-3]
< 5 µM | CNCC(O)COc1cccc(-c2nc(NC3CCN(C(=O)N(C)C)CC3)c(C)c(-c3c(C)noc3C)n2)c1 (centres unmarked) [Example 244-1a]
< 5 µM | CNC[C@@H](O)COc1ccc(F)c(-c2nc(-c3c(C)noc3C)c(C)c(N3Cc4cc(OC)cnc4C3)n2)c1 [Example 244-3]
< 5 µM | CNCC(O)COc1cccc(-c2nc(NC3CCN(C(=O)C4CC4)CC3)c(C)c(-c3c(C)noc3C)n2)c1 (centres unmarked) [Example 245-1a]
< 5 µM | CNC[C@@H](O)COc1ccc(Cl)c(-c2nc(-c3c(C)noc3C)c(C)c(N3Cc4cnc(C)nc4C3)n2)c1 [Example 245-3]
5 to 10 µM | CNCC(O)COc1cccc(-c2nc(NC3CCCN(C4COC4)C3)c(C)c(-c3c(C)noc3C)n2)c1 (centres unmarked) [Example 246-1a]
< 5 µM | CNC[C@@H](O)COc1ccc(Cl)c(-c2nc(-c3c(C)noc3C)c(C)c(N3CC4(CCC4)C3)n2)c1 [Example 246-3]
< 5 µM | CNCC(O)COc1cccc(-c2nc(NC3CCCN(C(=O)C4CC4)C3)c(C)c(-c3c(C)noc3C)n2)c1 (centres unmarked) [Example 247-1a]
< 5 µM | CNC[C@@H](O)COc1ccc(C(F)(F)F)c(-c2nc(-c3c(C)noc3C)c(C)c(N3Cc4cncnc4C3)n2)c1 [Example 247-3]
< 5 µM | CNCC(O)COc1cccc(-c2nc(NCC3CCN(C(=O)N(C)C)CC3)c(C)c(-c3c(C)noc3C)n2)c1 (centres unmarked) [Example 248-1a]
< 5 µM | CNC[C@@H](O)COc1ccc(Cl)c(-c2nc(-c3c(C)noc3C)c(C)c(N3Cc4cc(Br)cnc4C3)n2)c1 [Example 248-3]
< 5 µM | CNCC(O)COc1cccc(-c2nc(NCC3CCN(C(=O)C4CC4)CC3)c(C)c(-c3c(C)noc3C)n2)c1 (centres unmarked) [Example 249-1a]
< 5 µM | CNC[C@@H](O)COc1ccc(Cl)c(-c2nc(-c3c(C)noc3C)cc(N3CC4(CCOCC4)C3)n2)c1 [Example 249-3]
< 5 µM | CNCC(O)COc1cccc(-c2nc(N[C@@H]3CCC[C@@H]3O)c(C)c(-c3c(C)noc3C)n2)c1 (some centres unmarked) [Example 250-1a]
< 5 µM | CNC[C@@H](O)COc1ccc(Cl)c(-c2nc(-c3c(C)noc3C)cc(N3Cc4cnn(C)c4C3)n2)c1 [Example 250-3]
< 5 µM | CNCC(O)COc1cccc(-c2nc(-c3c(C)noc3C)c(C)c(N3CCC4(CC3)CN(C(=O)OC)C4)n2)c1 (centres unmarked) [Example 251-1a]
< 5 µM | CNC[C@@H](O)COc1ccc(Cl)c(-c2nc(-c3c(C)noc3C)cc(N3Cc4nccnc4C3)n2)c1 [Example 251-3]
< 5 µM | CNCC(O)COc1cccc(-c2nc(-c3c(C)noc3C)c(C)c(N3CCC4(CC3)CN(C(=O)N(C)C)C4)n2)c1 (centres unmarked) [Example 252-1a]
< 5 µM | CNC[C@@H](O)COc1ccc(Cl)c(-c2nc(-c3c(C)noc3C)c(C)c(N3Cc4nn(C)c(C)c4C3)n2)c1 [Example 252-3]
< 5 µM | CCS(=O)(=O)N1CC2(CCN(c3nc(-c4cccc(OCC(O)CNC)c4)nc(-c4c(C)noc4C)c3C)CC2)C1 (centres unmarked) [Example 253-1a]

IC50 | SMILES
< 5 µM | CCO[C@@H]1CCC[C@@H]1Nc1nc(-c2cc(OC[C@H](O)CNC)ccc2Cl)nc(-c2c(C)noc2C)c1C [Example 253-3]
< 5 µM | CNCC(O)COc1cccc(-c2nc(N[C@H]3C[C@H](O)C3)c(C)c(-c3c(C)noc3C)n2)c1 (some centres unmarked) [Example 254-1a]
5 to 10 µM | CCO[C@@H]1CCC[C@@H]1N(CC)c1nc(-c2cc(OC[C@H](O)CNC)ccc2Cl)nc(-c2c(C)noc2C)c1C [Example 254-3]
< 5 µM | CNCC(O)COc1cccc(-c2nc(N[C@H]3C[C@@](C)(O)C3)c(C)c(-c3c(C)noc3C)n2)c1 (some centres unmarked) [Example 255-1a]
5 to 10 µM | CCO[C@H]1CCC[C@H]1N(CC)c1nc(-c2cc(OC[C@H](O)CNC)ccc2Cl)nc(-c2c(C)noc2C)c1C [Example 255-3]
< 5 µM | CNCC(O)COc1cccc(-c2nc(N[C@H]3C[C@@H](O)C3)c(C)c(-c3c(C)noc3C)n2)c1 (some centres unmarked) [Example 256-1a]
5 to 10 µM | CNCC(O)COc1cccc(-c2nc(NC3CCOCC3)c(C)c(-c3c(CO)noc3C)n2)c1 (centres unmarked) [Example 256-3]
< 5 µM | CNC[C@@H](O)COc1ccc(Cl)c(-c2nc(N[C@@H]3CCO[C@@H](C)C3)c(C)c(-c3c(C)noc3C)n2)c1 [Example 257-3]
5 to 10 µM | CNCC(O)COc1cccc(-c2nc(NC[C@H]3COCCN3C(=O)N(C)C)c(C)c(-c3c(C)noc3C)n2)c1 (some centres unmarked) [Example 258-1a]
< 5 µM | CNC[C@@H](O)COc1ccc(Cl)c(-c2nc(NC3CCN(C)CC3(F)F)c(C)c(-c3c(C)noc3C)n2)c1 (some centres unmarked) [Example 258-3]
< 5 µM | CNCC(O)COc1cccc(-c2nc(OCC3CCN(C(=O)OCc4ccccc4)CC3)c(C)c(-c3c(C)noc3C)n2)c1 (centres unmarked) [Example 259-1a]
< 5 µM | CNC[C@@H](O)COc1ccc(Cl)c(-c2nc(-c3c(C)noc3C)c(C)c(N3Cc4cnc(C5CC5)nc4C3)n2)c1 [Example 259-3]
< 5 µM | CNCC(O)COc1cccc(-c2nc(N[C@@H]3CCN(C4CC4)C[C@@H]3F)c(C)c(-c3c(C)noc3C)n2)c1 (some centres unmarked) [Example 260-1a]
< 5 µM | CNC[C@@H](O)COc1ccc(F)c(-c2nc(-c3c(C)noc3C)c(C)c(N3Cc4cncnc4C3)n2)c1 [Example 260-3]
< 5 µM | CNCC(O)COc1cccc(-c2nc(N[C@@H]3CCN(C4CC4)C[C@H]3F)c(C)c(-c3c(C)noc3C)n2)c1 (some centres unmarked) [Example 261-1a]
< 5 µM | CNC[C@@H](O)COc1ccc(Cl)c(-c2nc(-c3c(C)noc3C)c(F)c(N3CC4(CCOCC4)C3)n2)c1 [Example 261-3]
< 5 µM | CNCC(O)COc1cccc(-c2nc(NCC3CCN(C4COC4)CC3)c(C)c(-c3c(C)noc3C)n2)c1 (centres unmarked) [Example 262-1a]
< 5 µM | CNCC(O)COc1cccc(-c2nc(NC3CCN(C4COC4)CC3)c(C)c(-c3c(C)noc3C)n2)c1 (centres unmarked) [Example 263-1a]
< 5 µM | CNC[C@@H](O)COc1ccc(Cl)c(-c2nc(-c3c(C)noc3C)c(C)c(N3Cc4cnc(C(F)(F)F)nc4C3)n2)c1 [Example 263-3]
5 to 10 µM | CNCC(O)COc1cccc(-c2nc(NC3CN(C(=O)C4CC4)C3)c(C)c(-c3c(C)noc3C)n2)c1 (centres unmarked) [Example 264-1a]
< 5 µM | CNC[C@@H](O)COc1ccc(Cl)c(-c2nc(-c3c(C)noc3C)c(C)c(N3Cc4cnc(C(C)C)nc4C3)n2)c1 [Example 264-3]

SMILES | IC50
CNCC(O)COc1cccc(-c2nc(NC3C[C@H]4CC[C@@H](C3)N4C(=O)OC)c(C)c(-c3c(C)noc3C)n2)c1 (some centres unmarked) [Example 242-1a] | < 5 µM
